Patent US20240131004A1, “FUNCTIONALIZED 1,3-BENZENE DIOLS AND THEIR METHOD OF USE FOR THE TREATMENT OF INFLAMMATION AND PAIN” (KANNALIFE SCIENCES, INC., priority 2021, published 2024)
Entries after “also recorded” stand apart in the source; their conditions may differ.

What was measured:
[1] = biological target: T1, human GPR55 (Homo sapiens, UniProt Q9Y2T6); assay: PathHunter β-arrestin assay, human GPR55 in CHO-K1 cell line; format: cell-based; conditions: 10 μM LPI
T1 construct: host or cells: CHO-K1
T1 sequence (Q9Y2T6 whole entry): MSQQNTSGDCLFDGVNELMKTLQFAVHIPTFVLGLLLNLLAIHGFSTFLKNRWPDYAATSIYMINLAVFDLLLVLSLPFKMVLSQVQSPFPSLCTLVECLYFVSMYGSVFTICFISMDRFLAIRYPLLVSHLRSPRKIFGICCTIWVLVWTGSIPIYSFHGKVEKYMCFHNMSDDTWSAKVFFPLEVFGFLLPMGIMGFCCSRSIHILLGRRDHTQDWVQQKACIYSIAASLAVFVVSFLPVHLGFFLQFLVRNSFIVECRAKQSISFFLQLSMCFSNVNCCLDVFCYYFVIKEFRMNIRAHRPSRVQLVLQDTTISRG
Experimental: In this assay, agonist-induced activation of GPR55 stimulates binding of β-arrestin to the Pro-link-tagged GPCR and forces complementation of two enzyme fragments, resulting in the formation of an active β-galactosidase enzyme. This interaction leads to an increase in enzyme activity that can be measured using chemiluminescent PathHunter detection reagents. For our application, the GPR55 agonist lysophosphatidylinositol (LPI) was tested from 0.1 nM to 30 μM to increase the relative luminescent signal relative to that of control. […] For the GPR55 antagonism assay, KLS-13019 concentrations ranging from 0.1 nM to 30 μM were tested in the presence of 16 μM LPI. Concentrations of KLS-13019 ranging from 0.1 nM to 30 μM were tested alone for possible effects of agonistic activity on β-arrestin.
A PathHunter β-arrestin assay is shown in FIG. 8 that provides a measure of an antagonist mode assessment of KLS-13019 with a human GPR55 model system (Eurofins). To measure the β-arrestin response to a GPR55 agonist, various concentrations of lysophosphatidylinositol (LPI) were used as shown in the closed circles. […] Based on these findings, 16 μM LPI was incubated with various concentrations of KLS-13019 to test for antagonistic properties (closed inverted triangles). […] All assays were conducted with an N=10.

[2] = system: NLRP3; assay: Neuritic NLRP3 immunoreactive spot area in hippocampal neurons, LPIA reversal paradigm; format: cell-based, rat; conditions: 1 nM LPIA, hippocampal cultures
Excerpt: Tissue was dissociated with a papain-based kit from Worthington Biochemical Corporation (Lakewood, NJ).
(§1) To assess all antibody-based assays, immunocytochemical methods were employed. The goals for these assays included: 1) to assess the immunoreactive area of our molecular targets (IL-1β, IL-6, GPR55, NLRPA3) with their respective primary antibodies and distinctively labeled secondary antibodies; and 2) to compare the relative responses in both neuronal cell bodies and neurites. Prior to fixation, growth medium was removed and the wells were rinsed one time with 100 μL of DPBS (37° C.). This warm rinse is particularly important to maintain structural stability of neurites. After removal of the DPBS, cultures were fixed for 20 min at room temperature with 50 μL/well of 3.5% formaldehyde (Sigma-Aldrich: 252549) in warm (37° C.) DPBS that contained 5.5 μg/mL of Hoechst 33342 dye (Invitrogen: H3570) to label cell nuclei. After removal of the fixative, the cultures were rinsed twice with 100 μL of DPBS and then a permeabilization/blocking buffer containing 5% normal goat serum and 0.3% triton-X100 in DPBS was added to the cultures for 10 min. After removal of the blocking buffer, the cultures were rinsed twice with 100 μL of DPBS and then primary antibodies were added for one-hour incubation at room temperature. Neurons were identified with antiserum to type III beta tubulin (tuj 1) to measure changes in all neuronal parameters. The primary antiserum employed was rabbit anti-rat obtained from Sigma-Aldrich (T2200) and used at 1:200 dilution. The secondary was an Alexa Fluor 488-conjugated Fab fragment of goat anti-rabbit IgG obtained from Life Technologies (A11070) used at 1:600.

[3] = system: interleukin-6; conditions: 1 nM LPIA, after one hour of incubation, DRG neurons
Excerpt: (§2) Because of the recognized importance of sensory neurons in DRG to transmitting peripheral nociception (Krames, 2014) and the reported accumulation of paclitaxel in DRG from models of CIPN (Duggett et al., 2016), the preparation of choice for the in vitro studies to study protection and anti-inflammation was dissociated cultures from rat DRG. DRG cultures derived from embryonic day 18 rats were employed as the primary assay system to study KLS-13019-properties. In brief, DRG were obtained commercially through Brain Bits (Springfield, IL) and cultures prepared with slight modifications to methods previously described (Brenneman et al., 2019). Tissue was dissociated with a papain-based kit from Worthington Biochemical Corporation (Lakewood, NJ). The DRG cells were plated at low density (10,000 cells/well) in a 96-well format and maintained in serum-free medium consisting of Neurobasal Medium supplemented with B27, GlutaMAX (Gibco) and 25 ng/ml Nerve Growth Factor. Poly-D-lysine coated plates (BD Biosciences, Franklin Lakes, NJ) were employed for this culture system. Prior to the initiation of experiments between days 5 and 9 in vitro, a complete change of medium was performed in a working volume of 100 μL.
as §1, with “The secondary was an Alexa Fluor 488-conjugated Fab fragment of goat anti-rabbit IgG obtained from Life Technologies (A11070) used at 1:600.” left out

[4] = system: interleukin-1β; conditions: 1 nM LPIA, after one hour of incubation, DRG neurons
Excerpt: as §2
as §1, with “The secondary was an Alexa Fluor 488-conjugated Fab fragment of goat anti-rabbit IgG obtained from Life Technologies (A11070) used at 1:600.” left out

[5] = system: GPR55; conditions: DRG neurons
Excerpt: as §2
as §1, with “The secondary was an Alexa Fluor 488-conjugated Fab fragment of goat anti-rabbit IgG obtained from Life Technologies (A11070) used at 1:600.” left out

[6] = system: GPR55; assay: Neuritic GPR55 immunoreactive area in DRG cultures, 6 h co-treatment with LPIA; format: cell-based, rat; conditions: 1 nM LPIA, 6 hours, DRG cultures
Excerpt: as §2
To assess all antibody-based assays, immunocytochemical methods were employed. The goals for these assays included: 1) to assess the immunoreactive area of our molecular targets (IL-1β, IL-6, GPR55, NLRPA3) with their respective primary antibodies and distinctively labeled secondary antibodies; and 2) to compare the relative responses in both neuronal cell bodies and neurites. Prior to fixation, growth medium was removed and the wells were rinsed one time with 100 μL of DPBS (37° C.). This warm rinse is particularly important to maintain structural stability of neurites. After removal of the DPBS, cultures were fixed for 20 min at room temperature with 50 μL/well of 3.5% formaldehyde (Sigma-Aldrich: 252549) in warm (37° C.) DPBS that contained 5.5 μg/mL of Hoechst 33342 dye (Invitrogen: H3570) to label cell nuclei. […]

Substance | Agonist signal in β-arrestin assay [1] | Effect of LPIA on neuritic NLRP3 spot area [2] | Effect on neuritic IL-6 IR area [3] | Effect on neuritic IL-1β IR area [4] | Concentration producing a maximum effect on GPR55 IR area ([5]; preliminary concentration-effect studies) | Effect on GPR55 IR area ([5]; LPIA, after one hour of incubation) | Effect of LPIA on neuritic GPR55 area [6]
lysophosphatidylinositol [LPI, reference compound] | robust and reproducible signal; also recorded: robust agonist signal | – | – | – | – | – | –
lysophosphatidylinositol arachidonate [LPIA] | – | increased NLRP3 spot area | significant increases | significant increases | 1 nM | increases in GPR55 IR area | produced an increase in neuritic GPR55
